Reference: ChEMBL document CHEMBL5550211 (J Med Chem, 2024)

Tests used:
[1] = Apparent permeability across apical to basolateral side in LLC-PK1 cells; assay type: ADME, cell-based, Sus scrofa; conditions: pig
[2] = target: T1, Serine/threonine-protein kinase B-raf (Homo sapiens, UniProt P15056, V600E); assay: Inhibition of 6-His tagged BRAF V600E mutant (445 to 723 residues) (unknown origin)
[3] = target: T1, Serine/threonine-protein kinase B-raf; assay: Inhibition of BRAF V600E mutant in human A-375 cells assessed as reduction in ERK phosphorylation; assay type: cell-based
[4] = Substrate activity at P-gp in LLC-PK1 cells assessed as efflux ratio of apparent permeability from basolateral to apical side over apical to basolateral side; assay type: ADME, cell-based, Sus scrofa; conditions: pig
[5] = Substrate activity at BCRP in LLC-PK1 cells assessed as efflux ratio of apparent permeability from basolateral to apical side over apical to basolateral side; assay type: ADME, cell-based, Sus scrofa; conditions: pig
[6] = Dissociation constant, pKa of the compound; assay type: physicochemical

T1 sequence (P15056 2-766 V600E limits assumed): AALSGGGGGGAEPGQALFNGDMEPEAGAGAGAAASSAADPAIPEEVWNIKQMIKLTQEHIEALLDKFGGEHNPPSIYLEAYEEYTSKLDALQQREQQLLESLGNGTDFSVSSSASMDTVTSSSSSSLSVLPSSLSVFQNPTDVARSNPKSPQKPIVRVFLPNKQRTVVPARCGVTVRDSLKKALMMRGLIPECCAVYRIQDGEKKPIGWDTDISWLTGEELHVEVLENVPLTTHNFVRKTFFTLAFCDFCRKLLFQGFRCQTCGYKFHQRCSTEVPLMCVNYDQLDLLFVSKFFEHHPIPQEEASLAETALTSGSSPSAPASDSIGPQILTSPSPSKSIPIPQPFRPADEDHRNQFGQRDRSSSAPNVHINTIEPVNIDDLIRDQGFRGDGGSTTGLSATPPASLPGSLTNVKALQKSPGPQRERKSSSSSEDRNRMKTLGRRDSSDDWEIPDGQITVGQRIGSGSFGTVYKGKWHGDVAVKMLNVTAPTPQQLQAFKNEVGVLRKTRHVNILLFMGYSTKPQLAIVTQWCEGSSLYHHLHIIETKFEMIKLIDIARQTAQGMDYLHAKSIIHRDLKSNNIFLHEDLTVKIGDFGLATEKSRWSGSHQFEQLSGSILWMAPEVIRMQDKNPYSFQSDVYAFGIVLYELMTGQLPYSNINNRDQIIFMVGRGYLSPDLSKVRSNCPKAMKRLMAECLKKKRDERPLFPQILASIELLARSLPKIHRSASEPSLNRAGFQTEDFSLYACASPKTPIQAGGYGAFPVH

SMILES | Papp A→B [1] [×10⁻⁶ cm/s] | IC50 [2] [nM] | IC50 [3] [nM] | Ratio [4] | Ratio [5] | pKa [6]
CCCS(=O)(=O)Nc1ccc(F)c(Nc2ccc3ncn(C)c(=O)c3c2Cl)c1Cl | 24 | – | – | – | – | –
CCCS(=O)(=O)Nc1ccc(F)c(Oc2ccc3ncn(C)c(=O)c3c2)c1F | 29 | – | – | – | – | –
CCCS(=O)(=O)Nc1ccc(F)c(Nc2ccc3ncn(C)c(=O)c3c2)c1F | 26 | 88 | 69.1 | 11.1 | 21.3 | –
Cc1c(Nc2c(F)ccc(NS(=O)(=O)CC(C)C)c2Cl)ccc2ncn(C)c(=O)c12 | 27 | 50.8 | 122 | 1.6 | 1.3 | –
CCCS(=O)(=O)Nc1ccc(Cl)c(N(C)c2ccc3ncn(C)c(=O)c3c2)c1F | 37 | 28.4 | 178 | 4.1 | 3.9 | –
CCCS(=O)(=O)Nc1ccc(F)c(Nc2ccc3ncn(C4CC4)c(=O)c3c2C)c1Cl | 25 | 11.7 | 61.5 | 1.6 | 1.6 | –
CCCS(=O)(=O)Nc1ccc(F)c(Nc2ccc3ncn(C)c(=O)c3c2)c1Cl | 39 | 13.8 | 27.3 | 4.1 | 6 | –
CCS(=O)(=O)Nc1ccc(F)c(Nc2ccc3ncn(C)c(=O)c3c2C)c1Cl | 36 | 182 | 169 | 1.8 | 1.3 | –
CCCS(=O)(=O)Nc1ccc(F)c(Nc2ccc3ncn(C)c(=O)c3c2F)c1Cl | 33 | – | – | – | – | –
CCCS(=O)(=O)Nc1ccc(F)c(Nc2ccc3ncn(CC4CC4)c(=O)c3c2C)c1Cl | 21 | 17.5 | 285 | 1.1 | 1.6 | –
Cc1c(Nc2c(F)ccc(NS(=O)(=O)C3CC3)c2Cl)ccc2ncn(C)c(=O)c12 | 22 | – | – | – | – | –
CCCS(=O)(=O)Nc1ccc(F)c(N(C)c2ccc3ncn(C)c(=O)c3c2)c1Cl | 28 | 54.9 | 177 | 3.6 | 1.3 | –
CCCS(=O)(=O)Nc1ccc(F)c(N(C)c2ccc3ncn(C)c(=O)c3c2)c1F | 41 | 69.2 | 73.7 | 3.2 | 2.6 | –
CC(C)(C)c1nc(-c2cccc(NS(=O)(=O)c3c(F)cccc3F)c2F)c(-c2ccnc(N)n2)s1 [DABRAFENIB] | 29 | – | – | 10.1 | 11.7 | –
CCCS(=O)(=O)Nc1ccc(F)c(Nc2ccc3ncn(C(C)C)c(=O)c3c2C)c1Cl | 20 | 20 | 187 | 1.4 | 1.5 | –

Further lines, results first:

Papp A→B [1] [×10⁻⁶ cm/s] | IC50 [2] [nM] | IC50 [3] [nM] | Ratio [4] | Ratio [5] | pKa [6] | SMILES
22 | – | – | – | – | – | CCCS(=O)(=O)Nc1ccc(F)c(Nc2ccc3ncn(C)c(=O)c3c2OC)c1Cl
28 | 14.5 | 35.5 | 1.3 | 1.2 | 7.88 | CCCS(=O)(=O)Nc1ccc(F)c(Nc2ccc3ncn(C)c(=O)c3c2C)c1Cl
11 | – | – | 26.3 | – | – | COC(=O)N[C@@H](C)CNc1nccc(-c2cn(C(C)C)nc2-c2cc(Cl)cc(NS(C)(=O)=O)c2F)n1 [ENCORAFENIB]
29 | 46.1 | 93.6 | 1.5 | 1.1 | – | Cc1c(Nc2c(F)ccc(NS(=O)(=O)CC3CC3)c2Cl)ccc2ncn(C)c(=O)c12
30 | 3.61 | 27 | 0.9 | 0.9 | – | CCCS(=O)(=O)Nc1ccc(F)c(Nc2ccc3ncn(CC)c(=O)c3c2C)c1Cl
3 | – | – | 21.7 | 15.2 | – | CCCS(=O)(=O)Nc1ccc(F)c(C(=O)c2c[nH]c3ncc(-c4ccc(Cl)cc4)cc23)c1F [VEMURAFENIB]
27 | 77.4 | 113 | 1.2 | 0.8 | – | CCC(C)S(=O)(=O)Nc1ccc(F)c(Nc2ccc3ncn(C)c(=O)c3c2C)c1Cl (stereo not given)
48 | 60.3 | 142 | 7.1 | 18.9 | – | CCCS(=O)(=O)Nc1ccc(Cl)c(Nc2ccc3ncn(C)c(=O)c3c2)c1F
19 | 197 | 197 | 1.5 | 1.5 | – | CCCS(=O)(=O)Nc1ccc(F)c(N(CC)c2ccc3ncn(C)c(=O)c3c2)c1F
19 | – | – | – | – | – | CCCS(=O)(=O)Nc1ccc(F)c(Sc2ccc3ncn(C)c(=O)c3c2)c1F
